The source made the active and inactive calls. No cut-off for these calls is given here.
Columns and labels:
SH-SY5Y [1] = assay: Neuroprotective activity against cocktail of rotenone plus oligomycin A-induced oxidative stress in human SH-SY5Y cells assessed as increase in cell viability at 10 nM preincubated for 24 hrs followed by […] measured after 24 hrs by MTT assay relative to control; format: functional
SH-SY5Y [2] = assay: Reversal of okadaic acid-mediated PP2A catalytic subunit C Ser/Thr phosphatase activity inactivation in human SH-SY5Y cells assessed as recovery of PP2A activity at 0.1 uM preincubated for 24 hrs followed by cotreatment with PPA2 inhibitor okadaic acid for 18 hrs measured over 30 mins by pNPP based spectrophotometric analysis relative to control; format: cell-based; set-up: scale not given: the % may be the effect or the level left
[3] = test system: Voltage-gated calcium channel; assay: Inhibition of voltage gated calcium channel in human SH-SY5Y cells assessed as blockade of K+-evoked calcium uptake at 1 uM pretreated for 10 mins followed by 70 mM K+ addition by Fluo-4AM dye based fluorescence assay relative to control; format: cell-based
SH-SY5Y [4] = assay: Neuroprotective activity against okadaic acid-induced oxidative stress in human SH-SY5Y cells assessed as increase in cell viability at 0.1 uM preincubated for 24 hrs followed by OA addition measured after 20 hrs by MTT assay relative to control; format: functional
SH-SY5Y [5] = assay: Cytotoxicity against human SH-SY5Y cells assessed as decrease in cell viability up to 30 uM after 48 hrs by MTT assay; format: cell-based
Bos taurus = species: Bos taurus; assay: Inhibition of P/Q-type voltage dependent calcium channel in bovine Chromaffin cells assessed as reduction in K+-induced calcium current at 1 uM after 3 mins by whole cell patch clamp electrophysiology assay; format: cell-based
[6] = target: Voltage-dependent N-type calcium channel subunit alpha (Bos taurus) (UniProt G3X7Z2); assay: Inhibition of N-type voltage dependent calcium channel in bovine Chromaffin cells assessed as reduction in K+-induced calcium current at 1 uM after 3 mins by whole cell patch clamp electrophysiology assay; format: cell-based
Voltage-dependent N-type calcium channel subunit alpha (Bos taurus), sequence (G3X7Z2 as listed by the source): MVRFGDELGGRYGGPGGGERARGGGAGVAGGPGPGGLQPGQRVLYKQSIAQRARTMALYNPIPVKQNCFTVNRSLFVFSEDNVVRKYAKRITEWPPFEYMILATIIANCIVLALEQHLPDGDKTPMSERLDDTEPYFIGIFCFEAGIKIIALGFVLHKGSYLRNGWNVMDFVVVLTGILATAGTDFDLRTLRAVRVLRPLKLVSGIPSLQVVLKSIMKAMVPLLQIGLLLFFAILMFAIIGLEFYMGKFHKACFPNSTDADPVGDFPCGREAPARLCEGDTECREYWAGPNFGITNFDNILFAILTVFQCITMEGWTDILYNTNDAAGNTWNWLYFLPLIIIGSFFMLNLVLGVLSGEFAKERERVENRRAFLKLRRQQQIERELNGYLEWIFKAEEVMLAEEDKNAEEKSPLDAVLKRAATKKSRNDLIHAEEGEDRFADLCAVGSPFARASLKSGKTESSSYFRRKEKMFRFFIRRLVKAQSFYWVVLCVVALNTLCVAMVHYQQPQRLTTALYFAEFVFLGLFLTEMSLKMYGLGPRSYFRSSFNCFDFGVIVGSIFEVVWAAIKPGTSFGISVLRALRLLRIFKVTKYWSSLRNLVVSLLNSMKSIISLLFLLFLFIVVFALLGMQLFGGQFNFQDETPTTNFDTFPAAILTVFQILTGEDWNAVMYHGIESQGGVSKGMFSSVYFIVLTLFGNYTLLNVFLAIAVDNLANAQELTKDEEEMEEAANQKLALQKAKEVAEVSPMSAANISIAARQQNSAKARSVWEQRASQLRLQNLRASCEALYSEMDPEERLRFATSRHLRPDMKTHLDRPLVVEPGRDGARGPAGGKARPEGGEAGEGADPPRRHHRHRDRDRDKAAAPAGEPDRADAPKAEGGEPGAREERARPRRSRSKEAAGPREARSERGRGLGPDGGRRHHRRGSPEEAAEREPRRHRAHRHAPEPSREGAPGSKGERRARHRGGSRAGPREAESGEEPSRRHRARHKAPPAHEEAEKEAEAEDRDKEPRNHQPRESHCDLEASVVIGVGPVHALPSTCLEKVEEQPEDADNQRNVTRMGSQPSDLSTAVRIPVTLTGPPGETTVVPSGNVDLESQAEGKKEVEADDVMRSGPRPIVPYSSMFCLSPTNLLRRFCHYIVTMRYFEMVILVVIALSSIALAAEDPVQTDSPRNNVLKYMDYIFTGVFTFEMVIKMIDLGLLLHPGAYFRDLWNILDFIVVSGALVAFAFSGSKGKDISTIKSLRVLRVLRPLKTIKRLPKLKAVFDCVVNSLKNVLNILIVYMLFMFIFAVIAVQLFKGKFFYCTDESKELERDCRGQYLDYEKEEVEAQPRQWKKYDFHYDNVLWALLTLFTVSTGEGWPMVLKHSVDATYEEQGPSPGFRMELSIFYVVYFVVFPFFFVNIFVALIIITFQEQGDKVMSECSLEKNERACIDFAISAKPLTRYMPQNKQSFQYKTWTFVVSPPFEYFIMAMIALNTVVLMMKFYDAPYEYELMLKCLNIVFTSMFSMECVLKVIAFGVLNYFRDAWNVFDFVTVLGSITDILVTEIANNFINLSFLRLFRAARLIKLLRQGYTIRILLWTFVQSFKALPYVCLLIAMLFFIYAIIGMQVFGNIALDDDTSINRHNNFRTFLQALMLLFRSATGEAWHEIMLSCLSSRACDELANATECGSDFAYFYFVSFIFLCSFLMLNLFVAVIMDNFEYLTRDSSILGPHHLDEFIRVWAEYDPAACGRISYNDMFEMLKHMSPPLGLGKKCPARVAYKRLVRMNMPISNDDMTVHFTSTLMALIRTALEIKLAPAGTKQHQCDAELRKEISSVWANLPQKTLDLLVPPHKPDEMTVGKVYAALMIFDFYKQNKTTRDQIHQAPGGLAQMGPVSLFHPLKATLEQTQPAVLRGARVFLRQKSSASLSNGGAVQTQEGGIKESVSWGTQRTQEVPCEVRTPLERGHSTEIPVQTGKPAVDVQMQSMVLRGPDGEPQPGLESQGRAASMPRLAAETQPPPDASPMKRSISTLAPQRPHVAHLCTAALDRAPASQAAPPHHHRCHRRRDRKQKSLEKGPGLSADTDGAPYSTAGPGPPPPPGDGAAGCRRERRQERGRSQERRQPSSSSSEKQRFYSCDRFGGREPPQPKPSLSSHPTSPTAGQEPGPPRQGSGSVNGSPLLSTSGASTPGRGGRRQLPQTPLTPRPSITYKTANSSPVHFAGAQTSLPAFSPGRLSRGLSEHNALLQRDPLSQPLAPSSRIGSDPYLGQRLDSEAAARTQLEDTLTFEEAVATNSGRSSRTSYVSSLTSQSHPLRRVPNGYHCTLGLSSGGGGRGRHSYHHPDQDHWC

SH-SY5Y [7] = assay: Reversal of okadaic acid-mediated PP2A inactivation in human SH-SY5Y cells assessed as decrease in Tau phosphorylation at Ser202/Thr205 residues at 0.1 uM after 24 hrs by Western blot method; format: cell-based
[8] = test system: Voltage-gated calcium channel; assay: Inhibition of voltage gated calcium channel in human SH-SY5Y cells assessed as blockade of K+-evoked calcium uptake at 3 uM pretreated for 10 mins followed by 70 mM K+ addition by Fluo-4AM dye based fluorescence assay relative to control; format: cell-based

| inhibition (INH) [3] | inhibition [6] | SMILES | Activity (SH-SY5Y [1]) | Activity (SH-SY5Y [2]) | Activity (SH-SY5Y [4]) | Activity (SH-SY5Y [5]) | inhibition (Bos taurus) | Activity (SH-SY5Y [7]) | inhibition (INH) [8] |
| --- | --- | --- | --- | --- | --- | --- | --- | --- | --- |
|  |  | COc1ccc2[nH]cc(CCNC(C)=O)c2c1 [MELATONIN] | 36% |  |  |  |  |  |  |
| 32% |  | C#CCn1cc(CN2CCCCC2)c2cc(Cl)ccc21 | 16% | 44% | 55% | Non-Toxic |  |  |  |
| 11% |  | C#CCn1cc(CN(C)C)c2cc(Br)cnc21 | 17% | 17% | 63% | Non-Toxic |  |  |  |
| 46% | Active | CN(C)Cc1cn(Cc2ccccc2)c2ncc(Br)cc12 | 32% | 21% | 84% | Non-Toxic | Active |  |  |
| 8% |  | C#CCn1cc(CN2CCCCC2)c2cc(Br)cnc21 | 13% | 25% | 68% | Non-Toxic |  |  |  |
| 15% |  | Brc1cnc2c(c1)c(CN1CCCCC1)cn2Cc1ccccc1 | 25% | 31% | 60% | Non-Toxic |  |  |  |
|  |  | CC12CC3CC(C)(C1)CC(N)(C3)C2 [MEMANTINE] |  | 28% | 63% |  |  |  |  |
| 9% |  | CCCCn1cc(CN2CCCCC2)c2cc(Br)cnc21 | 39% | 22% | 98% | Non-Toxic |  |  |  |
| 18% |  | C#CCn1cc(CN(C)C)c2cc(Cl)ccc21 | 26% | 23% | 43% | Non-Toxic |  |  |  |
| 23% |  | CCCCn1cc(CN(C)C)c2cc(Cl)ccc21 | 38% | 39% | 93% | Non-Toxic |  |  |  |
| 10% |  | COc1cnc2c(c1)c(CN(C)C)cn2Cc1ccccc1 | 29% | 33% | 51% | Non-Toxic |  |  |  |
| 40% | Active | CN(C)Cc1cn(Cc2ccccc2)c2ccc(Cl)cc12 | 32% | 78% | 88% | Non-Toxic | Active | Active |  |
| 10% |  | CCCCn1cc(CN(C)C)c2cc(Br)cnc21 | 18% | 34% | 57% | Non-Toxic |  |  |  |
| 37% |  | Clc1ccc2c(c1)c(CN1CCCCC1)cn2Cc1ccccc1 | 24% | 27% | 62% | Non-Toxic |  |  |  |
| 7% |  | CCCCn1cc(CN(C)C)c2ccccc21 | 20% | 12% | 50% | Non-Toxic |  |  |  |
| 35% |  | C#CCn1cc(CN2CCCCC2)c2ccccc21 | 41% | 17% | 58% | Non-Toxic |  |  |  |
| 19% |  | COc1cnc2c(c1)c(CN1CCCCC1)cn2Cc1ccccc1 | 40% | 47% | 62% | Non-Toxic |  |  |  |
| 22% |  | CN(C)Cc1cn(Cc2ccccc2)c2ccccc12 | 34% | 45% | 67% | Non-Toxic |  |  |  |
| 13% |  | CCCCn1cc(CN2CCCCC2)c2ccccc21 | 25% | 30% | 55% | Non-Toxic |  |  |  |
|  |  | COC(=O)C1=C(C)NC(C)=C(C(=O)OC)C1c1ccccc1[N+](=O)[O-] [NIFEDIPINE] |  |  |  |  |  |  | 40% |
| 3% |  | C#CCn1cc(CN(C)C)c2ccccc21 | 32% | 59% | 75% | Non-Toxic |  |  |  |
| 11% |  | c1ccc(Cn2cc(CN3CCCCC3)c3ccccc32)cc1 | 28% | 37% | 65% | Non-Toxic |  |  |  |
| 24% |  | CCCCn1cc(CN2CCCCC2)c2cc(Cl)ccc21 | 27% | 38% | 98% | Non-Toxic |  |  |  |
